Here are results for 13 compounds from patent US7915295B2, “Non-nucleotide reverse transcriptase inhibitors” (priority 2004, dated 2011).

The first assay relates to wild type HIV (HIVIIIB).
Assay: not given
Conditions: read-out: ED50 (the source's name); cited from earlier work.
Turning to `O=C(Nc1ccc(Oc2ccccc2)cn1)N[C@@H]1[C@@H]2COc3c(F)ccc(F)c3[C@@H]21` (relative stereo) [Prior art, cis-1-(4,7-difluoro-1,1a,2,7b-tetrahydro-cyclopropa[c]chromen-1-yl)-3-(5-phenoxy-pyridin-2-yl)-urea, reference compound], the EC50 is 7 nM.

The target in another assay is T1, HIV-1 reverse transcriptase L100I+K103N mutant (Human immunodeficiency virus type 1 group M subtype B, UniProt P03366, K702N/L699I).
T1 construct: made in house; host or cells: E. coli BL21 (DE3)
As to the kind of experiment: HIV-1 reverse transcriptase SPA (scintillation proximity) assay with mutant RT. The format is biochemical. Conditions: K103N double escape mutant. As for the experimental part:
Convenient reverse transcriptase assays use reverse transcriptase bearing key drug escape mutations prepared broadly as described in Unge et al Eur. J. Biochem. 269, 1670-1677 (2002).
For example a K103N mutant is prepared using this methodology and the primers
The L100I/K103 N mutant is prepared by mutation of L100 in the K103N enzyme:
Mutations are done in the HIVRT DH10 clone cDNA cloned into the pET11d expression vector. The mutations are generated by amplification of the mutated DNA with the help of the enzyme Pfu. Cloning was then performed in E. coli TOP10 cells and expression of mutated enzyme was performed in E. coli BL21 (DE3) cells after induction with IPTG.
The HIV-1 reverse transcriptase assay utilized a SPA (scintillation proximity assay) system relying on fluomicrospheres coated with the receptor molecule streptavidine (Flashplates, PerkinElmer Life Science) which is capable of binding radiolabelled ligands in the reaction solution. In the assay, a biotinylated primer (5′-GTC ATA GCT GTT TCC TG-3′) is pre-annealed with a DNA heterogeneous template (synthesized by GENSE) giving a sequence of 5′-CG UCUGGCAUUGCGAGCGGAUAA CM UUU CAC ACA GGA MC AGC UAU GAC-3′ in an RNase free environment. HIV-1 reverse transcriptase (such as L100I+K103N) catalyzed RNA-dependent DNA activity was measured in the presence of 50 mM Tris-HCl pH=8.0, 80 mM KCl, 10 mM MgCl2, 10 mM Dithiothreitol, 5 mg/ml BSA and 0.05% Nonidet P40 where the incorporation of tritium-labeled dGTP (Amersham, 35 Ci/mmol) and 11 uM of dNTP (dATP, dCTP and dTTP) was monitored at room temperature. The dGTP concentration was used at a Km value of 0.25 uM, 10 nM of RNA template was used and mutant RT (such as L100I+K103N) was used at 180 ng/ml in 100 ul reaction volume for 120 min reaction.
Compounds of the invention were assayed for HIV activity against the problematic L100I, K103N mutant in an invitro assay as outlined below. For reference, the closest prior art compound, cis-1-(4,7-difluoro-1,1a,2,7b-tetrahydro-cyclopropa[c]chromen-1-yl)-3-(5-phenoxy-pyridin-2-yl)-urea, example 20 of WO 02/070516 as depicted above, was assayed in the same system.
For `O=C(Nc1ccc(Oc2ccccc2)cn1)N[C@@H]1[C@@H]2COc3c(F)ccc(F)c3[C@@H]21` (relative stereo) [Prior art, cis-1-(4,7-difluoro-1,1a,2,7b-tetrahydro-cyclopropa[c]chromen-1-yl)-3-(5-phenoxy-pyridin-2-yl)-urea, reference compound], the IC50 stood at 600 nM.
`CC(=O)Nc1ccc(Oc2ccc(NC(=O)N[C@@H]3[C@H]4COc5c(F)ccc(F)c5[C@H]43)nc2)cc1` [Example 13, N-[4-({6-[({[(1S,1aS,7bS)-4,7-difluoro-1,1a,2,7b-tetrahydrocyclopropa[c]chromen-1-yl]amino}carbonyl)amino]-3-pyridinyl}oxy)phenyl]acetamide] had an IC50 of 40 nM.
Consider `Nc1ccc(Oc2ccc(NC(=O)N[C@@H]3[C@@H]4COc5c(F)ccc(F)c5[C@@H]43)nc2)cc1` [Example 4, N-[(1S,1aR,7bR)-4,7-difluoro-1,1a,2,7b-tetrahydrocyclopropa[c]chromen-1-yl]-N′-[5-(4-aminophenoxy)-2-pyridinyl]urea], for which the IC50 was 70 nM. Compared with the last compound, the IC50 is about 1.8-fold higher.
`O=C(Nc1ccc(Oc2ccc(-n3cncn3)cc2)cn1)N[C@@H]1[C@@H]2COc3c(F)ccc(F)c3[C@@H]21` [Example 14, N-[(1S,1aR,7bR)-4,7-difluoro-1,1a,2,7b-tetrahydrocyclopropa[c]chromen-1-yl]-N′-{5-[4-(1H-1,2,4-triazol-1-yl)phenoxy]pyridin-2-yl}urea]: the midpoint of inhibition, the IC50, lay at 60 nM.
The same measure, in the same setting: to `NC(=O)c1ccc(Oc2ccc(NC(=O)N[C@@H]3[C@@H]4COc5c(F)ccc(F)c5[C@@H]43)nc2)cn1` [Example 10, 5-({6-[({[(1S,1aR,7bR)-4,7-difluoro-1,1a,2,7b-tetrahydrocyclopropa[c]chromen-1-yl]amino}carbonyl)amino]-3-pyridinyl}oxy)-2-pyridinecarboxamide] belongs 80 nM.
On the same count and under the same terms, to `CS(=O)(=O)Nc1ccc(Oc2ccc(NC(=O)N[C@@H]3[C@@H]4COc5c(F)ccc(F)c5[C@@H]43)nc2)cc1` [Example 3, N-[(1S,1aR,7bR)-4,7-difluoro-1,1a,2,7b-tetrahydrocyclopropa[c]chromen-1-yl]-N′-[5-(4-(N-methylsulfonamido)phenoxy)-2-pyridinyl]urea] belongs 60 nM; to `NS(=O)(=O)c1ccc(Oc2ccc(NC(=O)N[C@@H]3[C@@H]4COc5c(F)ccc(F)c5[C@@H]43)nc2)cc1` [Example 1, N-[(1S,1aR,7bR)-4,7-difluoro-1,1a,2,7b-tetrahydrocyclopropa[c]chromen-1-yl]-N′-[5-(4-(sulfonamido)phenoxy)-2-pyridinyl]urea], 29 nM.
Same read-out and setting: next, `NC(=O)c1ccc(Oc2ccc(NC(=O)N[C@@H]3[C@@H]4COc5c(F)ccc(F)c5[C@@H]43)nc2)cc1` [Example 9, 4-({6-[({[(1S,1aR,7bR)-4,7-difluoro-1,1a,2,7b-tetrahydrocyclopropa[c]chromen-1-yl]amino}carbonyl)amino]-3-pyridinyl}oxy)benzamide]: 28 nM; `CNC(=O)c1ccc(Oc2ccc(NC(=O)N[C@@H]3[C@@H]4COc5c(F)ccc(F)c5[C@@H]43)nc2)cn1` [Example 8, 5-({6-[({[(1S,1aR,7bR)-4,7-difluoro-1,1a,2,7b-tetrahydrocyclopropa[c]chromen-1-yl]amino}carbonyl)amino]-3-pyridinyl}oxy)-N-methyl-2-pyridinecarboxamide]: 70 nM; `CS(=O)(=O)c1ccc(Oc2ccc(NC(=O)N[C@@H]3[C@@H]4COc5c(F)ccc(F)c5[C@@H]43)nc2)cc1` [Example 5, N-[(1S,1aR,7bR)-4,7-difluoro-1,1a,2,7b-tetrahydrocyclopropa[c]chromen-1-yl]-N′-[5-(4-(methylsulfon)phenoxy)-2-pyridinyl]urea]: 40 nM.
In turn, `CNC(=O)c1ccc(Oc2ccc(NC(=O)N[C@@H]3[C@@H]4COc5c(F)ccc(F)c5[C@@H]43)nc2)cc1` [Example 2, N-[(1S,1 aR,7bR)-4,7-difluoro-1,1a,2,7b-tetrahydrocyclopropa[c]chromen-1-yl]-N′-[5-(4-(N-methylcarboxyamido)phenoxy)-2-pyridinyl]urea] had an IC50 of 26 nM.
Same read-out and setting: next, `O=C(Nc1ccc(Oc2ccc(C(=O)NC3CC3)cc2)cn1)N[C@@H]1[C@H]2COc3c(F)ccc(F)c3[C@H]21` [Example 12, 4-({6-[({[(1S,1aS,7bS)-4,7-difluoro-1,1a,2,7b-tetrahydrocyclopropa[c]chromen-1-yl]amino}carbonyl)amino]-3-pyridinyl}oxy)-N-cyclopropylbenzamide]: 27 nM; `NNC(=O)c1ccc(Oc2ccc(NC(=O)N[C@@H]3[C@H]4COc5c(F)ccc(F)c5[C@H]43)nc2)cc1` [Example 11, N-[(1S,1aS,7bS)-4,7-difluoro-1,1a,2,7b-tetrahydrocyclopropa[c]chromen-1-yl]-N′-{5-[4-(hydrazinocarbonyl)phenoxy]-2-pyridinyl}urea]: 10 nM.

The term IC50 denotes the concentration needed to halve the response being measured. The low end stands for inhibition by little substance, the high end for a need for much substance.
